Consider 2 compounds from US7858610B2, “Preventive and/or remedy for lower urinary tract diseases containing EP4 agonist” (Ono Pharmaceutical Co., Ltd., priority 2004, dated 2010).

This assay concerns model of cyclophosphamide-induced cystitis in rats. The assay is described as follows: Cystometry in the model of cyclophosphamide-induced cystitis in rats. The settings on record: for decrease of the bladder compliance induced by cyclophosphamide: bladder capacity divided by voiding pressure. The assay is classed as in vivo, rat. As for the experimental part: Female Wistar rats (around 9 weeks old) were anesthetized with sodium pentobarbital (40 mg/kg, i.p.). After median incision of the hypogastrium, the top of bladder was incised. A catheter for use in cystometry was filled with physiological saline and then was inserted through the top hole into bladder. The other end of the catheter was fixed subcutaneously in the dorsal part. 0.1 mL Vicillin S500 (Meiji Seika Kaisha, Ltd.; 100 mg titers/mL distilled water/rat) was injected into the buttock muscle. Then, the rats were fed for 6 days or more, and subsequently subjected to the following treatment.
The model of cyclophosphamide-induced cystitis was prepared by a single dose intraperitoneal administration of cyclophosphamide (Sigma; 150 mg/kg). Distilled water is administered intraperitoneally for the control group.
The test compound of each dose was administrated orally 30 minutes before the treatment of cyclophosphamide, and 4, 20, 30 and 45 hours after the treatment of cyclophosphamide. The solvent group (hereinafter, it may be referred to as vehicle.) was administrated distilled water which is the solvent of the test compound. The following cystometry was carried out 48 hours after the treatment of cyclophosphamide.
The rats anesthetized with diethyl ether were kept in ballman cage. The tip of the indwelling catheter for use in measurement of voiding pressure was connected through a three-way valve. Another end of the three-way valve was connected to a pressure transducer, while the other end was connected to a syringe for intravesical injection which was mounted on an infusion pump. A signal of voiding pressure was recorded using an amp recorder of strain pressure
After awaking from anesthesia, saline was injected into the bladder of the rats at a rate of 2.85 mL/h. After the pattern of the micturition reflex was stable, the residual urine was removed. Afterwards, saline was injected again into the bladder at a rate of 2.85 mL/h, and the voiding pressure and the urination interval were measured. The bladder capacity was calculated from the urination interval. The bladder compliance was calculated by dividing the bladder capacity by the voiding pressure.

[1] abbreviates: 1000 μg/kg orally, cyclophosphamide-induced cystitis, female Wistar rats.

As to `O=C(O)CCCSCCN1C(=O)CC[C@@H]1/C=C/[C@@H](O)Cc1ccc(F)cc1` [compound 1, 4-[(2-{(2R)-2-[(1E,3S)-4-(4-fluorophenyl)-3-hydroxybut-1-enyl]-5-oxopyrrolidin-1-yl}ethyl)sulfanyl]butanoic acid], the “decrease of the bladder compliance induced by cyclophosphamide” value (300 μg/kg orally, 30 min before and 4, 20, 30 and 45 h after cyclophosphamide (150 mg/kg i.p.), cystometry 48 h after, FIG. 2) is reported as “improved”. Further, the “decrease of the bladder capacity induced by cyclophosphamide” value (300 μg/kg orally, 30 min before and 4, 20, 30 and 45 h after cyclophosphamide (150 mg/kg i.p.), cystometry 48 h after, female Wistar rats, FIG. 1) is recorded as “improved”. Further, for the setting “oral administration, regardless of the presence of the cyclophosphamide treatment, FIG. 3”, the voiding pressure entry was “decreased”.
As for “methyl 4-{[2-((1R,2R,3R)-3-hydroxy-2-{(1E,3S)-3-hydroxy-4-[3-(methoxymethyl)phenyl]but-1-enyl}-5-oxocyclopenty)ethyl]sulfanyl}butanoate α-cyclodextrin clathrate [compound 2]”, under setting [1], the “decrease of the bladder capacity induced by cyclophosphamide” value was “improved” and the “decrease of the bladder compliance induced by cyclophosphamide” value is reported as “improved”.
